Results from BindingDB's records for doi:10.1021/jm800180e (Schering-Plough Research Institute, 2008).

Columns and labels:
[1] = Antagonist activity at PAR1 in human platelets assessed as inhibition of haTRAP-induced platelet aggregation
[2] = Antagonist activity at PAR1 in human platelets assessed as inhibition of thrombin-induced platelet aggregation

`CCOC(=O)N[C@@H]1CC[C@@H]2[C@@H](C1)C[C@H]1C(=O)O[C@H](C)[C@H]1[C@H]2C=Cc1ccc(-c2cccc(F)c2)cn1` [Ethyl [(3aR,4aR,8aR,9aS)-9(S)-[(E)-2-[5-(3-fluorophenyl)-2-pyridinyl]ethenyl]dodecahydro-1(R)-methyl-3-oxonaphtho[2,3-c]furan-6(R)-yl]carbamate] showed an IC50 [1] of 25 nM and an IC50 [2] of 47 nM.
